Assay results reported in patent publication US12421179B2, “Production method for radiolabeled aryl compound” (OSAKA UNIVERSITY, priority 2017, dated 2025).

Assays:
[1] = system: C6 glioma cell derived from rat; experiment: Glioma cell uptake experiment; assay type: cell-based; conditions: for cell uptake reduced by LAT1 inhibitor (BCH) to fraction of uptake: 100 mM BCH addition group; for cell uptake reduced by competitive inhibitor (Phe) to fraction of uptake: 1% Phe addition group; for specificity of cell uptake (via LAT1): concluded from Phe and BCH inhibition; for cell uptake (amount of radioactivity taken up intracellularly): inhibitor-free group, amino acid-free HBSS medium
Method: The concentration of the 4-211At-L-phenylalanine (4-^211At-Phe) solution prepared in Example 2 and the 3-^211At-D,L-phenylalanine (3-^211At-Phe) solution prepared in Example 7 were each adjusted to 5 MBq/2 mg·ml. C6 glioma cell derived from rat was seeded on each well of 24-well plate by 5×10^5 cells/well, is and the cells were used in the next day's experiment (cell number: about 1×10^6 cells/well). Before the experiment, the medium was replaced with an amino acid-free HBSS medium (0.5 ml/well). 4-^211At-Phe or 3-^211At-Phe was added to each well of the plate by 10 μl, and the wells were divided into three groups of inhibitor-free group, 1% Phe addition group (competitive inhibitor) and 100 mM BCH addition group (LAT1 inhibitor), and incubated at 37° C. for 30 minutes or 60 minutes. After the incubation, the culture solution was removed, and the cells were washed with PBS, and lysed, and the amount of radioactivity taken up intracellularly was measured. […] Moreover, the cell uptake after 60 minutes was reduced, compared to that after 30 minutes. The competitive inhibitor (Phe) reduced the cell uptake of 4-^211At-Phe and 3-^211At-Phe to ½ to ⅓, and LAT1 inhibitor (BCH) reduced the cell uptake of 4-^211At-Phe and 3-^211At-Phe to ¼ to ⅛. […] Especially, the cell uptake of 3-^211At-Phe was more than that of 4-^211At-Phe, and therefore, 3-211At-Phe can be further expected for the above-mentioned application.

C6 glioma tumor = experiment: SPECT imaging of C6 glioma-transplanted rat; assay type: in vivo; conditions: 1 MBq, tail vein; 30 minutes and 3 hours after administration; tumor in both flanks
Method: The 4-^211At-L-phenylalanine (4-^211At-Phe) (1 MBq) prepared in Example 2 was administered to the tail vein of the glioma-transplanted rat, and the rat was imaged by SPECT camera (E-cam, Siemens). In both images, the is accumulation of 4-^211At-Phe in the tumor (both flanks, indicated by arrows in the figure) was observed. Therefore, 4-^211At-Phe can be expected to be applied to RI internal therapy or diagnosis for cancer.

| Structure (SMILES) | cell uptake reduced by LAT1 inhibitor (BCH) to fraction of uptake [1] | cell uptake reduced by competitive inhibitor (Phe) to fraction of uptake [1] | cell uptake after 60 minutes compared to that after 30 minutes ([1]; C6 glioma cells, 37° C.) | cell uptake compared with 4-^211At-Phe ([1]; C6 glioma cells, 37° C., 30 or 60 minutes) | specificity of cell uptake (via LAT1) [1] | cell uptake (amount of radioactivity taken up intracellularly) ([1]; 37° C., 30 or 60 minutes) | uptake by cancer cells (general statement) ([1]; summary statement in the description) | accumulation in the tumor (SPECT images) (C6 glioma tumor) |
| --- | --- | --- | --- | --- | --- | --- | --- | --- |
| NC(Cc1cccc([211At])c1)C(=O)O (racemic) [3-^211At-Phe, 3-^211At-D,L-phenylalanine] | ¼ to ⅛ | ½ to ⅓ | reduced | slightly more than that of 4-^211At-Phe | specifically taken up by the cells via LAT1 | taken up by the cell | taken up in large amounts by cancer cells | – |
| N[C@@H](Cc1ccc([211At])cc1)C(=O)O [4-^211At-Phe, 4-^211At-L-phenylalanine] | ¼ to ⅛ | ½ to ⅓ | reduced | – | specifically taken up by the cells via LAT1 | taken up by the cell | – | observed |
